Experimental data published in patent US7588894B2, “Use of ID4 for diagnosis and treatment of cancer” (John Wayne Cancern Institute, priority 2005, dated 2009).
Entries after “also recorded” stand apart in the source; their conditions may differ.

Legend:
Type in all cases: cell-based
[1] = system: ID4 mRNA expression in SW480; experiment: ID4 mRNA expression by quantitative real-time reverse transcription-PCR after 5Aza treatment, SW480
Description: (§1) Cell Lines. Three CRC cell lines SW480, DLD1, and LOVO (American Type Culture Collection, Manassas, Va.) were analyzed in this study. Genomic DNA was extracted from cells as described previously (33). Total RNA was extracted with TRI Reagent (Molecular Research Center, Inc., Cincinnati, Ohio) according to the manufacturer's protocol. For ID4 expression restoration study, SW480 and DLD1 were treated with DNA demethylation agent 5-aza-cytidine (5Aza), a known inhibitor of methylation, as described previously (33-35). Cells were seeded at 7×10^5/T-25 flask on day zero; the culture medium was changed on day two, and cells were then treated with 5Aza at final concentrations of 5 ug/mL for 48 hours (SW480 and DLD1) and 10 ug/mL for 72 hours (DLD1). After treatment, cells were harvested for DNA and RNA as described above.
(§2) Analysis of mRNA Expression Level. Reverse-transcriptase reactions were done on 1.0 ug of extracted total RNA with Moloney murine leukemia virus reverse-transcriptase (Promega, Madison, Wis.) with oligodeoxythymidylic acid primers, as described previously (39). Quantitative real-time reverse transcription-PCR assay was done on the iCycler iQ Real-Time thermocycler detection system (Bio-Rad Laboratories, Hercules, Calif.; 39). For each PCR, the reaction mixture consisted of cDNA template synthesized by reverse-transcription from 250 ng of total RNA, 0.2 mmol/L of forward primer (5′-CGCTCACTGCGCTCAACAC-3′), 0.2 mmol/L of reverse primer (5′-TCAGGCGGCCGCACACCT-3′), and 0.6 mmol/L of fluorescence resonance energy transfer probe (5′-FAM-[…]-BHQ-3′). […] Absolute copy numbers were determined by a standard curve with serial dilutions (10^8 to 10^1 copies) of DNA containing ID4 or GAPDH cDNA sequence. […] The expression level of the housekeeping gene GAPDH was measured as an internal reference with a standard curve to determine the integrity of template RNA for all of the specimens. The ratio of ID4 and GAPDH mRNA level was calculated as follows: (absolute copy number of ID4)/(absolute copy number of GAPDH) as described previously (39).

[2] = system: ID4 mRNA expression in DLD1; experiment: ID4 mRNA expression by quantitative real-time reverse transcription-PCR after 5Aza treatment, DLD1
Description: as §1
Analysis of mRNA Expression Level. Reverse-transcriptase reactions were done on 1.0 ug of extracted total RNA with Moloney murine leukemia virus reverse-transcriptase (Promega, Madison, Wis.) with oligodeoxythymidylic acid primers, as described previously (39). Quantitative real-time reverse transcription-PCR assay was done on the iCycler iQ Real-Time thermocycler detection system (Bio-Rad Laboratories, Hercules, Calif.; 39). For each PCR, the reaction mixture consisted of cDNA template synthesized by reverse-transcription from 250 ng of total RNA, 0.2 mmol/L of forward primer (5′-CGCTCACTGCGCTCAACAC-3′), 0.2 mmol/L of reverse primer (5′-TCAGGCGGCCGCACACCT-3′), and 0.6 mmol/L of fluorescence resonance energy transfer probe (5′-FAM-[…]-BHQ-3′). PCR amplification was done in a 20-ul reaction volume for 45 cycles of 30 seconds at 94° C., 30 seconds at 58° C., and 30 seconds at 72° C. with 3 mmol/L of Mg^2+. Absolute copy numbers were determined by a standard curve with serial dilutions (10^8 to 10^1 copies) of DNA containing ID4 or GAPDH cDNA sequence. Analysis without templates was done as a negative control in each study. PCR products were electrophoresed on 2% agarose gels to confirm correct product size and absence of nonspecific bands. The expression level of the housekeeping gene GAPDH was measured as an internal reference with a standard curve to determine the integrity of template RNA for all of the specimens. The ratio of ID4 and GAPDH mRNA level was calculated as follows: (absolute copy number of ID4)/(absolute copy number of GAPDH) as described previously (39).

[3] = system: ID4 promoter region in SW480; experiment: Methylation-specific PCR of ID4 promoter region after 5Aza treatment, SW480; settings: SW480, 5 ug/mL of 5Aza for 48 hours; untreated only methylated peaks
Description: (§3) Cell Lines. Three CRC cell lines SW480, DLD1, and LOVO (American Type Culture Collection, Manassas, Va.) were analyzed in this study. Genomic DNA was extracted from cells as described previously (33). Total RNA was extracted with TRI Reagent (Molecular Research Center, Inc., Cincinnati, Ohio) according to the manufacturer's protocol. […] Cells were seeded at 7×10^5/T-25 flask on day zero; the culture medium was changed on day two, and cells were then treated with 5Aza at final concentrations of 5 ug/mL for 48 hours (SW480 and DLD1) and 10 ug/mL for 72 hours (DLD1). After treatment, cells were harvested for DNA and RNA as described above. Sodium bisulfite modification was applied on extracted genomic DNA of tissue specimens or cell lines for methylation-specific PCR or bisulfite sequencing as described previously (33). Detection of Hypermethylation. Methylation status of ID4 promoter region was analyzed by methylation-specific PCR and bisulfite sequencing. […] PCR products were detected and analyzed by CEQ 8000XL capillary array electrophoresis system (Beckman Coulter, Inc., Fullerton, Calif.) with CEQ 8000 software version 6.0 (Beckman Coulter) as described previously (35). Methylation status was determined by the ratio of the signal intensities of methylated and unmethylated PCR products; samples with methylated to unmethylated ratio larger than 0.2 were determined as methylated.

[4] = system: ID4 promoter region in DLD1; experiment: Methylation-specific PCR of ID4 promoter region after 5Aza treatment, DLD1; settings: DLD1, 10 ug/mL of 5Aza for 72 hours; untreated only methylated peaks
Description: as §3

[5] = system: ID4 promoter region in SW480; experiment: Bisulfite sequencing of ID4 promoter region after 5Aza treatment, SW480; settings: SW480, 5 ug/mL of 5Aza for 48 hours; nontreated cells all CpG sites methylated
Description: as §1
(§4) Sodium bisulfite modification was applied on extracted genomic DNA of tissue specimens or cell lines for methylation-specific PCR or bisulfite sequencing as described previously (33).
(§5) For bisulfite sequencing, the primer set was as follows: forward, 5′-[…]-3′; and reverse, 5′-[…]-3′, with Y═C or T, R=G or A, as described previously (32). […] Sequences were read by CEQ 8000XL capillary array electrophoresis system (Beckman Coulter) with CEQ 8000 software version 6.0 (Beckman Coulter) as described previously (37).

[6] = system: ID4 promoter region in DLD1; experiment: Bisulfite sequencing of ID4 promoter region after 5Aza treatment, DLD1; settings: DLD1, 10 ug/mL of 5Aza for 72 hours
Description: as §1, §4, §5

[7] = system: CRC cell lines; experiment: mRNA expression in CRC cell lines after 5Aza treatment (summary statements)
Description: Cell Lines. Three CRC cell lines SW480, DLD1, and LOVO (American Type Culture Collection, Manassas, Va.) were analyzed in this study. Genomic DNA was extracted from cells as described previously (33). Total RNA was extracted with TRI Reagent (Molecular Research Center, Inc., Cincinnati, Ohio) according to the manufacturer's protocol. For ID4 expression restoration study, SW480 and DLD1 were treated with DNA demethylation agent 5-aza-cytidine (5Aza), a known inhibitor of methylation, as described previously (33-35). […]
as §2, with “Reverse-transcriptase reactions were done on 1.0 ug of extracted total RNA with Moloney murine leukemia virus reverse-transcriptase (Promega, Madison, Wis.) with oligodeoxythymidylic acid primers, as described previously (39).” left out, “The ratio of ID4 and GAPDH mRNA level was calculated as follows: (absolute copy number of ID4)/(absolute copy number of GAPDH) as described previously (39).” left out

Nc1ncn([C@@H]2O[C@H](CO)[C@@H](O)[C@H]2O)c(=O)n1 [5Aza, 5-aza-cytidine]
ID4 copy number ([1]; SW480, 5 ug/mL of 5Aza for 48 hours, untreated undetectable (0)): 4.7×10^2 copies/250 ng of total RNA | ID4 expression ratio (ID4 copy number)/(GAPDH copy number) ([1]; SW480, 5Aza-treated, untreated 0): 2.8 × 10^−3 | GAPDH copy number ([1]; SW480, 5Aza-treated, untreated 4.6 × 10^6): 1.7 × 10^5 copies/250 ng of total RNA | ID4 expression restoration ([2]; DLD1, 5 ug/mL of 5Aza for 48 hours): did not overtly restore ID4 expression | ID4 copy number ([2]; DLD1, 10 ug/mL of 5Aza for 72 hours, untreated undetectable (0)): 4.8×10^2 copies/250 ng of total RNA | ID4 expression ratio (ID4 copy number)/(GAPDH copy number) ([2]; DLD1, 5Aza-treated, untreated 0): 4.8 × 10^−3 | GAPDH copy number ([2]; DLD1, 5Aza-treated, untreated 5.6 × 10^5): 9.9 × 10^4 copies/250 ng of total RNA | Methylation-specific PCR result of ID4 promoter [3]: Unmethylated peaks appeared; also recorded: showed an unmethylation-specific peak | Methylation-specific PCR result of ID4 promoter [4]: Unmethylated peaks appeared; also recorded: produced an unmethylation-specific peak | Methylation status of CpG sites by bisulfite sequencing [5]: most CpG sites were changed to unmethylated form | Methylation status of CpG sites by bisulfite sequencing [6]: CpG sites partially lost their methylation | ID4 mRNA expression in hypermethylated CRC cell lines ([7]; 5-aza-cytidine treatment): could be restored | GAPDH mRNA ([7]; after 5Aza treatment, CRC cell lines): decreased
